Reference: patent publication US20100048503A1, “COMPOSITION FOR TREATMENT OF PANCREATIC CANCER” (Eisai R & D Management Co., Ltd., priority 2007, published 2010)
Counter-ions that a name gives are not always drawn.

Assays:
[1] = tested on: Human pancreatic cancer cell line AsPC-1; assay: Combination use with erlotinib hydrochloride in subcutaneous transplanted (xenograft) model in nude mouse; assay type: in vivo; details: oral, AsPC-1 xenograft; for Relative tumor volume on Day 29 Average ± standard deviation: once a day for four weeks, nude mouse
Experimental: Human pancreatic cancer cell line AsPC-1 (purchased from ATCC) was cultured in RPMI1640 (containing 10% FBS) in a 5% carbon dioxide gas incubator at 37° C. to about 80% confluence, and then the cells were collected with trypsin-EDTA. A 5×10^7 cells/mL suspension was prepared with a phosphate buffer, and each 0.11 mL of the resulting cell suspension was subcutaneously transplanted to a nude mouse at the side of its body. Ten days after the transplantation, 4-(3-chloro-4-(cyclopropylaminocarbonyl)aminophenoxy)-7-methoxy-6-quinolinecarboxamide (10 mg/kg, once a day for four weeks) and erlotinib hydrochloride (50 mg/kg, once a day for four weeks) were orally administered alone or in combination. The major and minor axes of tumors were measured with Digimatic caliper (Mitsutoyo Corporation), and tumor volumes and relative tumor volumes were calculated according to the following formulae: […] Relative Tumor Volume (RTV)=Tumor volume on measurement day/Tumor volume on the first administration day. […] The first day of administration was considered Day 1.

[2] = tested on: Human pancreatic cancer cell line AsPC-1; assay: Combination use with gemcitabine hydrochloride in subcutaneous transplanted (xenograft) model in nude mouse; assay type: in vivo; details: AsPC-1 xenograft; for Relative tumor volume on Day 29 Average ± standard deviation: nude mouse
Experimental: Human pancreatic cancer cell line AsPC-1 (purchased from ATCC) was cultured in RPMI1640 (containing 10% FBS) in a 5% carbon dioxide gas incubator at 37° C. to about 80% confluence, and then the cells were collected with trypsin-EDTA. A 5×10^7 cells/mL suspension was prepared with a phosphate buffer, and each 0.1 mL of the resulting cell suspension was subcutaneously transplanted to a nude mouse at the side of its body. Eleven days after the transplantation, 4-(3-chloro-4-(cyclopropylaminocarbonyl)aminophenoxy)-7-methoxy-6-quinolinecarboxamide (3, 10 or 30 mg/kg, once a day for four weeks, oral) and gemcitabine hydrochloride (purchased from Eli Lilly Japan) (200 mg/kg, four times every three days, intravenous) were administered alone or in combination. The major and minor axes of tumors were measured with Digimatic caliper (Mitsutoyo Corporation), and tumor volumes and relative tumor volumes were calculated according to the following formulae: […] Relative Tumor Volume (RTV)=Tumor volume on measurement day/Tumor volume on the first administration day. […] The first day of administration was considered Day 1.

[3] = Compound A 3, 10 or 30 mg/kg oral in combination with gemcitabine hydrochloride 200 mg/kg intravenous
[4] = Compound A 10 mg/kg in combination with erlotinib hydrochloride 50 mg/kg

In the case of `C#Cc1cccc(Nc2ncnc3cc(OCCOC)c(OCCOC)cc23)c1` [Erlotinib hydrochloride, 4-(3-ethynylphenylamino)-6,7-bis(2-methoxyethoxy)-quinazoline, reference compound], the “Relative tumor volume on Day 29 Average ± standard deviation” value ([1]; Erlotinib hydrochloride 50 mg/kg alone) is reported as 4.54 ± 0.18.

For `COc1cc2nccc(Oc3ccc(NC(=O)NC4CC4)c(Cl)c3)c2cc1C(N)=O` [Compound A, 4-(3-chloro-4-(cyclopropylaminocarbonyl)aminophenoxy)-7-methoxy-6-quinolinecarboxamide], the “Relative tumor volume on Day 29 Average ± standard deviation” value ([2]; Compound A 3 mg/kg alone, once a day for four weeks, oral) was 2.10 ± 0.64, the “Relative tumor volume on Day 29 Average ± standard deviation” value ([2]; Compound A 10 mg/kg alone, once a day for four weeks, oral) was 1.79 ± 0.56 and the “Relative tumor volume on Day 29 Average ± standard deviation” value ([2]; Compound A 30 mg/kg alone, once a day for four weeks, oral) was 0.88 ± 0.27. For the same compound, the “Anti-tumor effect of combination use compared with either agent alone” value [2, 3] was “superior anti-tumor effect”, the “Effect when used in combination with gemcitabine hydrochloride” value [2, 3] was “additive effect” and the “Relative tumor volume on Day 29 Average ± standard deviation” value ([1]; Compound A 10 mg/kg alone) was 1.84 ± 1.31. The “Anti-tumor effect of combination use compared with either agent alone” value [1, 4] was “superior anti-tumor effect” and the “Effect when used in combination with erlotinib hydrochloride” value [1, 4] was “additive effect”.

With `Nc1ccn([C@@H]2O[C@H](CO)C(O)C2(F)F)c(=O)n1` (single isomer, unassigned; (+)) [Gemcitabine hydrochloride, (+)-2′-deoxy-2′,2′-difluorocytidene, reference compound] the “Relative tumor volume on Day 29 Average ± standard deviation” value ([2]; Gemcitabine hydrochloride 200 mg/kg alone, four times every three days, intravenous) was 3.41 ± 0.41.
